Tests used:
PD-1/PD-L1 = system: T1, PD-1/PD-L1; test: cells; set-up: species or system Jurkat PD-1 effector cells with PD-L1 aAPC/CHO-K1; PD-1/PD-L1 blockade bioassay, NFAT luciferase reporter, Bio-Glo luminescence; conditions: Homo sapiens, Jurkat; NFAT reporter bioassay
T1 construct: PD-L1 on aAPC/CHO-K1 cells, PD-1 on Jurkat effector cells (Promega)
Description: BioAssay is designed to measure luciferase activity showing the EC50 level of PD-1/PD-L1 blocking by small molecules targeting PD-L1 protein in the cell. PD-1 effector cells were incubated with PD-L1 aAPC/CHO-K1 cells in the absence or presence of small molecules or αPD-L1 blocking antibodies, as indicated titration according to the manufacturer’s instruction (Promega). Bio-Glo™ Reagent was added and luminescence quantified. Data were analyzed using GraphPad Prism. Small molecules were first screened in a cell-free in vitro homogeneous time-resolved fluorescence (HTRF) assay, utilizing αPD-L1 (MIH1) and αPD-1 (nivolumab) antibodies as positive controls. […] It has been reported that a small molecule can stabilize a dimer form of PD-L1 through interactions with antiparallel residues in the hydrophobic dimer interface. To test if compound A can induce intermolecular PD-L1 interactions in solution, we developed a homodimer HTRF assay. […] In this assay, preventing the PD-1/PD-L1 interaction results in a release of constitutive NFAT reporter suppression and increases luciferase activity (relative luminescence units). […] We determined if compound A cellular bioassay potency could translate into immunomodulatory effects on primary human immune cells. […]

cell surface PD-L1 = target: T2, cell surface PD-L1 (Homo sapiens, UniProt Q9NZQ7); test: cell-based
T2 construct: gene CD274

[1] = target: T3, programmed death-ligand 1 (PD-L1, hPD-L1) (Homo sapiens, UniProt Q9NZQ7); test: co-crystal structure at […] Å (PD-L1 homodimer); IC50 from PD-1/PD-L1 HTRF assay; PD-L1/PD-L1 dimerization HTRF; assay type: binding
T3 construct: gene CD274; human PD-L1(18–134) with 6xHis carboxyl-terminal tag (crystal structure); recombinant Human PD-L1-His (HTRF)
T3 sequence (Q9NZQ7 18-134): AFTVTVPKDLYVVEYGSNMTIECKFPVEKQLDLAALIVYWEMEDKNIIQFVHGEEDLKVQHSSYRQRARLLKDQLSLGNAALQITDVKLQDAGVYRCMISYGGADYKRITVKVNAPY

T2 sequence (Q9NZQ7 whole entry): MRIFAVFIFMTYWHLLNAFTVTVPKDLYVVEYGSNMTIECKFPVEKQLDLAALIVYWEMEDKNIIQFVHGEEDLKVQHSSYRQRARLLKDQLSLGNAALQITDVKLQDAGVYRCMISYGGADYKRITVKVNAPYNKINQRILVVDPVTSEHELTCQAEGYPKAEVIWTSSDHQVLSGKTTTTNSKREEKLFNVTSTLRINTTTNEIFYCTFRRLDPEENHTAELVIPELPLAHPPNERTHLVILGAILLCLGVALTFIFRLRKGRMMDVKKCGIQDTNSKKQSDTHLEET

Structure (SMILES)	EC50 (PD-1/PD-L1)	IC50 (cell surface PD-L1)	IC50 [1]
Cc1c(NC(=O)c2ccc(CNCCO)cn2)cccc1-c1cccc(NC(=O)c2ccc(CNCCO)cn2)c1C [ARB-272572]	17.9 nM	2.1 nM	
Cc1c(NC(=O)c2ccc(CNCCO)cn2)cccc1-c1cccc(NC(=O)c2ccc(CNCCO)cn2)c1C [compound A, ARB-272572]			0.4 nM
